In the kinase profiling compilation of Christmann-Franck et al. (2016) one finds residual activity data, which are given here for six compounds.

STK16 (human), sequence (O75716 whole entry, looked up): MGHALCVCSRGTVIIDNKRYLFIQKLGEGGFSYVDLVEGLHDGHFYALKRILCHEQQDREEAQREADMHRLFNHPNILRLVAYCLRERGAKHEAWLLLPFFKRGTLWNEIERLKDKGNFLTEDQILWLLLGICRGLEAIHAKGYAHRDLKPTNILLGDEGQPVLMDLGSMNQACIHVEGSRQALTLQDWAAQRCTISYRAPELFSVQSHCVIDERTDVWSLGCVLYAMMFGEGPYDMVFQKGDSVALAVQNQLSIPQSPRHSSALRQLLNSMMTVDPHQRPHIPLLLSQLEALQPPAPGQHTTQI
PTK6 (human), sequence (Q13882 whole entry, looked up): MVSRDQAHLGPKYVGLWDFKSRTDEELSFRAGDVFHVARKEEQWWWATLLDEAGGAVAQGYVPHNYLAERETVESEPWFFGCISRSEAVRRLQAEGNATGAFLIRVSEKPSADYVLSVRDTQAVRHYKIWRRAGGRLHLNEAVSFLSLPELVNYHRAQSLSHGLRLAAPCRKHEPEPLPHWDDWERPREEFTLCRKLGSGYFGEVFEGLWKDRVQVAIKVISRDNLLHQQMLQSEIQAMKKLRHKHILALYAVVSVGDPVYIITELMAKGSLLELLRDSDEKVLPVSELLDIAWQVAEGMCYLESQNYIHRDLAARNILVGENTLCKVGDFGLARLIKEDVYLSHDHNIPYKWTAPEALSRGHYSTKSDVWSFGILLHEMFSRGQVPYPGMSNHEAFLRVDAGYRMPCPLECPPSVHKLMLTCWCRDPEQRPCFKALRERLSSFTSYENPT
STK33 (human), sequence (Q9BYT3 whole entry, looked up): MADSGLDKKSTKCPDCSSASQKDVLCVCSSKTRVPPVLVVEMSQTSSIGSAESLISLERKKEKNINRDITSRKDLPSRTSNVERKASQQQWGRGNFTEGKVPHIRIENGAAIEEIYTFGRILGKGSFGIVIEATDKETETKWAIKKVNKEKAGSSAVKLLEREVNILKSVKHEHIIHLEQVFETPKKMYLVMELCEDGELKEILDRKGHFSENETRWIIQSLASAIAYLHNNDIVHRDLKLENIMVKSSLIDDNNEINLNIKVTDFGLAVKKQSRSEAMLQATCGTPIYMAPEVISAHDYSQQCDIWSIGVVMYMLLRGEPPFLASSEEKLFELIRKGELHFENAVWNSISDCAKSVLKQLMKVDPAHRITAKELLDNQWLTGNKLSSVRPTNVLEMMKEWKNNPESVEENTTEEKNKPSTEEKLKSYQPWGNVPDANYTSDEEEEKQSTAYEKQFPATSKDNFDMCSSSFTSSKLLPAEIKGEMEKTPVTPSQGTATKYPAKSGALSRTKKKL

The first assay concerns the target STK33 (human) (UniProt Q9BYT3). Nature of the assay: radiometric filter-binding kinase assay. To be noted: compound 0.1 µM.
As for `CCCCCc1ccc(/C=C/[C@H](O)[C@@H](CO)NC)cc1`, the residual activity stood at 100%.
For `c1ccc2c(-c3cnn4cc(-c5ccc(N6CCNCC6)cc5)cnc34)ccnc2c1`, the residual activity was found to be 81%.
On the same count and under the same terms, for `COc1cc(O)c2c(c1)/C=C/C[C@H](O)[C@H](O)C(=O)/C=C\C[C@H](C)OC2=O` the value was 120%.

Still in this assay, the particulars now being: compound 1.0 µM.
As for `CCCCCc1ccc(/C=C/[C@H](O)[C@@H](CO)NC)cc1`, the residual activity was found to be 100%.
Same read-out and setting: to `c1ccc2c(-c3cnn4cc(-c5ccc(N6CCNCC6)cc5)cnc34)ccnc2c1` belongs 44%.
`NC(=O)c1c(NC(=O)C2CC2)sc2c1CCCC2`: the residual activity amounted to 87%.
In the case of `COc1cc(O)c2c(c1)/C=C/C[C@H](O)[C@H](O)C(=O)/C=C\C[C@H](C)OC2=O`, the residual activity is 85%.

The assay is the same for the next values; noted with them: compound 10.0 µM.
As to `CCCCCc1ccc(/C=C/[C@H](O)[C@@H](CO)NC)cc1`, the residual activity was 89%.
In the case of `CC(C)C[C@H](NC(=O)CNC(=O)c1cc(Cl)ccc1Cl)B1OC(=O)CC(CC(=O)O)(C(=O)O)O1` (some centres undefined), the residual activity was found to be 98%.
Same read-out and setting: to `O=S(=O)(c1ccc(F)c2nonc12)N1CCN(c2ncc(C(F)(F)F)cc2Cl)CC1` belongs 97%; to `c1ccc2c(-c3cnn4cc(-c5ccc(N6CCNCC6)cc5)cnc34)ccnc2c1`, 11%; to `NC(=O)c1c(NC(=O)C2CC2)sc2c1CCCC2`, 74%.

Another assay deals with TEK (human) (UniProt Q02763). Description: radiometric filter-binding kinase assay. The settings on record: compound 0.1 µM.
TEK (human), sequence (Q02763 whole entry, looked up): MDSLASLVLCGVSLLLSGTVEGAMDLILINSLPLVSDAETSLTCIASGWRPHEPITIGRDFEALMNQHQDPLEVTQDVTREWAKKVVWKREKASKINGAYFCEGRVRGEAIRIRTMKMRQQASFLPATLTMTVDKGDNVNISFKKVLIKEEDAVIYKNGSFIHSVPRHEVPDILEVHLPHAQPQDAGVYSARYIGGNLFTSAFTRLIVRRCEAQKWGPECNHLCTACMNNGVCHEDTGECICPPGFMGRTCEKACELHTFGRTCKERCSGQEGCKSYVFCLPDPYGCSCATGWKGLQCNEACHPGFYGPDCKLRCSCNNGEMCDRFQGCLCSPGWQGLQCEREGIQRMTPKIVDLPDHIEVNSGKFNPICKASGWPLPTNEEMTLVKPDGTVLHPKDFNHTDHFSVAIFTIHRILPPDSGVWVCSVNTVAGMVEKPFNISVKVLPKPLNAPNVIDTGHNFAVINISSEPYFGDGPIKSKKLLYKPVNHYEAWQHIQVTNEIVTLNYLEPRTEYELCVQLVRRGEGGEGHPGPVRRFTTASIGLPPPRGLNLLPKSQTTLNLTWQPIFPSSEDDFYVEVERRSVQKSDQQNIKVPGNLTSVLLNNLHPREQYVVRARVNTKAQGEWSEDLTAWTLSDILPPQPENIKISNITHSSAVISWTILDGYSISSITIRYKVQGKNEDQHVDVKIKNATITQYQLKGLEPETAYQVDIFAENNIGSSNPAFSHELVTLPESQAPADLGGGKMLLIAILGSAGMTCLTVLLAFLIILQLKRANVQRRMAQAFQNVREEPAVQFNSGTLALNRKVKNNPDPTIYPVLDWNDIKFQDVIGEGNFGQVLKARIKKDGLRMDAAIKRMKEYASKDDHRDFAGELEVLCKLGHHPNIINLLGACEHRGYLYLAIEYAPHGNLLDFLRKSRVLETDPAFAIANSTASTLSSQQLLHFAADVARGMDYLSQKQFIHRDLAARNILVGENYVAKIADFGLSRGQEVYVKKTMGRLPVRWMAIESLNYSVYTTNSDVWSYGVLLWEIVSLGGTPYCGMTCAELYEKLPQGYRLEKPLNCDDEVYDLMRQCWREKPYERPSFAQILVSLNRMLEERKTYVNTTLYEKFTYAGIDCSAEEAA
Take `CCCCCc1ccc(/C=C/[C@H](O)[C@@H](CO)NC)cc1`: the residual activity was 141%.
As for `c1ccc2c(-c3cnn4cc(-c5ccc(N6CCNCC6)cc5)cnc34)ccnc2c1`, the residual activity amounted to 102%.
Still for that read-out and setting: to `COc1cc(O)c2c(c1)/C=C/C[C@H](O)[C@H](O)C(=O)/C=C\C[C@H](C)OC2=O` belongs 103%.

The assay is the same for the next values; noted with them: compound 1.0 µM.
With `CCCCCc1ccc(/C=C/[C@H](O)[C@@H](CO)NC)cc1`, the residual activity is 118%.
Turning to `c1ccc2c(-c3cnn4cc(-c5ccc(N6CCNCC6)cc5)cnc34)ccnc2c1`, the residual activity came out at 86%.
In the case of `COc1cc(O)c2c(c1)/C=C/C[C@H](O)[C@H](O)C(=O)/C=C\C[C@H](C)OC2=O`, the residual activity is 93%.

The assay is the same for the next values; noted with them: compound 10.0 µM.
For `CCCCCc1ccc(/C=C/[C@H](O)[C@@H](CO)NC)cc1`, the residual activity is 113%.
With `CC(C)C[C@H](NC(=O)CNC(=O)c1cc(Cl)ccc1Cl)B1OC(=O)CC(CC(=O)O)(C(=O)O)O1` (some centres undefined), the residual activity amounted to 98%.
The same measure, in the same setting: for `O=S(=O)(c1ccc(F)c2nonc12)N1CCN(c2ncc(C(F)(F)F)cc2Cl)CC1` the value was 112%; for `c1ccc2c(-c3cnn4cc(-c5ccc(N6CCNCC6)cc5)cnc34)ccnc2c1`, 30%.
Same read-out and setting: for `NC(=O)c1c(NC(=O)C2CC2)sc2c1CCCC2` the value was 75%.

The target in another assay is PRKCG (human) (UniProt P05129). Nature of the assay: radiometric filter-binding kinase assay. The settings on record: compound 0.1 µM.
As to `CCCCCc1ccc(/C=C/[C@H](O)[C@@H](CO)NC)cc1`, the residual activity amounted to 101%.
Still for that read-out and setting: for `c1ccc2c(-c3cnn4cc(-c5ccc(N6CCNCC6)cc5)cnc34)ccnc2c1` the value was 99%.
For `COc1cc(O)c2c(c1)/C=C/C[C@H](O)[C@H](O)C(=O)/C=C\C[C@H](C)OC2=O`, the residual activity amounted to 87%.

The same assay, now with this note: compound 1.0 µM.
For `CCCCCc1ccc(/C=C/[C@H](O)[C@@H](CO)NC)cc1`, the residual activity worked out at 109%.
On the same count and under the same terms, for `c1ccc2c(-c3cnn4cc(-c5ccc(N6CCNCC6)cc5)cnc34)ccnc2c1` the value was 97%.
On to `NC(=O)c1c(NC(=O)C2CC2)sc2c1CCCC2`, for which the residual activity is 98%.
Still for that read-out and setting: to `COc1cc(O)c2c(c1)/C=C/C[C@H](O)[C@H](O)C(=O)/C=C\C[C@H](C)OC2=O` belongs 87%.

The same assay, now with this note: compound 10.0 µM.
Consider `CCCCCc1ccc(/C=C/[C@H](O)[C@@H](CO)NC)cc1`, for which the residual activity worked out at 96%.
For `CC(C)C[C@H](NC(=O)CNC(=O)c1cc(Cl)ccc1Cl)B1OC(=O)CC(CC(=O)O)(C(=O)O)O1` (some centres undefined), the residual activity turned out to be 114%.
On the same count and under the same terms, for `O=S(=O)(c1ccc(F)c2nonc12)N1CCN(c2ncc(C(F)(F)F)cc2Cl)CC1` the value was 98%; for `c1ccc2c(-c3cnn4cc(-c5ccc(N6CCNCC6)cc5)cnc34)ccnc2c1`, 92%.
Still for that read-out and setting: to `NC(=O)c1c(NC(=O)C2CC2)sc2c1CCCC2` belongs 110%.

The target in another assay is ABL1 (human) (UniProt P00519). Nature of the assay: radiometric filter-binding kinase assay. To be noted: compound 0.1 µM.
ABL1 (human), sequence (P00519 whole entry, looked up): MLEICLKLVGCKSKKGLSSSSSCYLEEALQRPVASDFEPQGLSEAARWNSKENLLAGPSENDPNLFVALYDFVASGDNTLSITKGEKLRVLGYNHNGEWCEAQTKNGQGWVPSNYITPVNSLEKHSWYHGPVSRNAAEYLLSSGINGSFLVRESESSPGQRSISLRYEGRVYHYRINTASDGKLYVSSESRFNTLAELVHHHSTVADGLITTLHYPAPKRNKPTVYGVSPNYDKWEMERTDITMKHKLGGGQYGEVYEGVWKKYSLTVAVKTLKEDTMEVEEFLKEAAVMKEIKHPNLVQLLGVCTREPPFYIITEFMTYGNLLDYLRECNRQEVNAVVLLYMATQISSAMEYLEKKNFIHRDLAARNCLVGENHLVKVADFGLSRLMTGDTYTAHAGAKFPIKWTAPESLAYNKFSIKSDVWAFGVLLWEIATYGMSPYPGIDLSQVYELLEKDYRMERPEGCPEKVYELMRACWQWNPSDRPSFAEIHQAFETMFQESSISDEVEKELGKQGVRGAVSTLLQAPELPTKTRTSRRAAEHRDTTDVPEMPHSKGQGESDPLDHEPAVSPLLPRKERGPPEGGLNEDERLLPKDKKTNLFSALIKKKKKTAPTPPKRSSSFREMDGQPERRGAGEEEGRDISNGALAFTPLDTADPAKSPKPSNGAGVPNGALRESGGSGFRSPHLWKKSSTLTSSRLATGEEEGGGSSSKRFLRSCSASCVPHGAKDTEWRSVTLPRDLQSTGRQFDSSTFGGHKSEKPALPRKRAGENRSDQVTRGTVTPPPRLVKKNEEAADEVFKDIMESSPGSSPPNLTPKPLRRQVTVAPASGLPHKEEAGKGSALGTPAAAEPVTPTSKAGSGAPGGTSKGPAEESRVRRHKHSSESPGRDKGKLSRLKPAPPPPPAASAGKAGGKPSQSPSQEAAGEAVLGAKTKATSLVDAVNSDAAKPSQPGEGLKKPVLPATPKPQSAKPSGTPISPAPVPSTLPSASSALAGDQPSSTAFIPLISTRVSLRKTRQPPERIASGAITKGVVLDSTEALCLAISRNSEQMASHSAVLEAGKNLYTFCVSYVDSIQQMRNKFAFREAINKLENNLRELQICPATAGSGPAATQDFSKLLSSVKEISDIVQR
For the compound `CCCCCc1ccc(/C=C/[C@H](O)[C@@H](CO)NC)cc1`, the residual activity was 110%.
For the compound `c1ccc2c(-c3cnn4cc(-c5ccc(N6CCNCC6)cc5)cnc34)ccnc2c1`, the residual activity turned out to be 43%.
For the compound `COc1cc(O)c2c(c1)/C=C/C[C@H](O)[C@H](O)C(=O)/C=C\C[C@H](C)OC2=O`, the residual activity was found to be 108%.

The assay is the same for the next values; noted with them: compound 1.0 µM.
Take `CCCCCc1ccc(/C=C/[C@H](O)[C@@H](CO)NC)cc1`: the residual activity worked out at 106%.
The same measure, in the same setting: to `c1ccc2c(-c3cnn4cc(-c5ccc(N6CCNCC6)cc5)cnc34)ccnc2c1` belongs 6%; to `NC(=O)c1c(NC(=O)C2CC2)sc2c1CCCC2`, 93%; to `COc1cc(O)c2c(c1)/C=C/C[C@H](O)[C@H](O)C(=O)/C=C\C[C@H](C)OC2=O`, 71%.

The assay is the same for the next values; noted with them: compound 10.0 µM.
Turning to `CCCCCc1ccc(/C=C/[C@H](O)[C@@H](CO)NC)cc1`, the residual activity was 109%.
`CC(C)C[C@H](NC(=O)CNC(=O)c1cc(Cl)ccc1Cl)B1OC(=O)CC(CC(=O)O)(C(=O)O)O1` (some centres undefined): the residual activity was 101%.
On the same count and under the same terms, for `O=S(=O)(c1ccc(F)c2nonc12)N1CCN(c2ncc(C(F)(F)F)cc2Cl)CC1` the value was 111%.
With `c1ccc2c(-c3cnn4cc(-c5ccc(N6CCNCC6)cc5)cnc34)ccnc2c1`, the residual activity came to 4%.
Turning to `NC(=O)c1c(NC(=O)C2CC2)sc2c1CCCC2`, the residual activity was 82%.

A further assay deals with ZAP70 (human) (UniProt P43403). Nature of the assay: radiometric filter-binding kinase assay. The settings on record: compound 0.1 µM.
ZAP70 (human), sequence (P43403 whole entry, looked up): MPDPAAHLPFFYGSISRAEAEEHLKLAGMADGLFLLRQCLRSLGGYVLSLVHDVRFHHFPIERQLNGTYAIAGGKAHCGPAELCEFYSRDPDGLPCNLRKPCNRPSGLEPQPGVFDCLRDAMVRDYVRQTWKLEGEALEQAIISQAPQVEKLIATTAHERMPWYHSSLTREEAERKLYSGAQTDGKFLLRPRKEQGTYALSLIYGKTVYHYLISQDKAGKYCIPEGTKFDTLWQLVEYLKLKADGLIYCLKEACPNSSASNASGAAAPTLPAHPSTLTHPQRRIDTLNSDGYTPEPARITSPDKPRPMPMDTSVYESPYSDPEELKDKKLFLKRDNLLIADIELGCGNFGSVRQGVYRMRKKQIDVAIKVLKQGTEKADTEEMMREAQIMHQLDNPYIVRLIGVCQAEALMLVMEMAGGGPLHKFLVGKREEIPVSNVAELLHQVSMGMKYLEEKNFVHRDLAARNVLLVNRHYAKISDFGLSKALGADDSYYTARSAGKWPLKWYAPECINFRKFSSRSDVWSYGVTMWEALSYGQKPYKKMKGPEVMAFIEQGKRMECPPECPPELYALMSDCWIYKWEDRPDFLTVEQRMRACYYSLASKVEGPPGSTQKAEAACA
With `CCCCCc1ccc(/C=C/[C@H](O)[C@@H](CO)NC)cc1`, the residual activity came out at 116%.
Same read-out and setting: to `c1ccc2c(-c3cnn4cc(-c5ccc(N6CCNCC6)cc5)cnc34)ccnc2c1` belongs 86%; to `COc1cc(O)c2c(c1)/C=C/C[C@H](O)[C@H](O)C(=O)/C=C\C[C@H](C)OC2=O`, 110%.

The assay is the same for the next values; noted with them: compound 1.0 µM.
For the compound `CCCCCc1ccc(/C=C/[C@H](O)[C@@H](CO)NC)cc1`, the residual activity is 106%.
Regarding `c1ccc2c(-c3cnn4cc(-c5ccc(N6CCNCC6)cc5)cnc34)ccnc2c1`, the residual activity amounted to 69%.
Turning to `NC(=O)c1c(NC(=O)C2CC2)sc2c1CCCC2`, the residual activity stood at 94%.
On to `COc1cc(O)c2c(c1)/C=C/C[C@H](O)[C@H](O)C(=O)/C=C\C[C@H](C)OC2=O`, for which the residual activity came to 96%.

Still in this assay, the particulars now being: compound 10.0 µM.
In the case of `CCCCCc1ccc(/C=C/[C@H](O)[C@@H](CO)NC)cc1`, the residual activity stood at 92%.
Turning to `CC(C)C[C@H](NC(=O)CNC(=O)c1cc(Cl)ccc1Cl)B1OC(=O)CC(CC(=O)O)(C(=O)O)O1` (some centres undefined), the residual activity amounted to 84%.
Still for that read-out and setting: for `O=S(=O)(c1ccc(F)c2nonc12)N1CCN(c2ncc(C(F)(F)F)cc2Cl)CC1` the value was 85%.
On to `c1ccc2c(-c3cnn4cc(-c5ccc(N6CCNCC6)cc5)cnc34)ccnc2c1`, for which the residual activity is 101%.
The same measure, in the same setting: for `NC(=O)c1c(NC(=O)C2CC2)sc2c1CCCC2` the value was 80%.

Another assay addresses PTK6 (human) (UniProt Q13882). Description: radiometric filter-binding kinase assay. To be noted: compound 0.1 µM.
Regarding `CCCCCc1ccc(/C=C/[C@H](O)[C@@H](CO)NC)cc1`, the residual activity came to 104%.
On the same count and under the same terms, to `c1ccc2c(-c3cnn4cc(-c5ccc(N6CCNCC6)cc5)cnc34)ccnc2c1` belongs 78%.
Still for that read-out and setting: for `COc1cc(O)c2c(c1)/C=C/C[C@H](O)[C@H](O)C(=O)/C=C\C[C@H](C)OC2=O` the value was 65%.

The assay is the same for the next values; noted with them: compound 1.0 µM.
Turning to `CCCCCc1ccc(/C=C/[C@H](O)[C@@H](CO)NC)cc1`, the residual activity was determined as 93%.
With `c1ccc2c(-c3cnn4cc(-c5ccc(N6CCNCC6)cc5)cnc34)ccnc2c1`, the residual activity came out at 21%.
Same read-out and setting: for `NC(=O)c1c(NC(=O)C2CC2)sc2c1CCCC2` the value was 114%; for `COc1cc(O)c2c(c1)/C=C/C[C@H](O)[C@H](O)C(=O)/C=C\C[C@H](C)OC2=O`, 25%.

The assay is the same for the next values; noted with them: compound 10.0 µM.
Take `CCCCCc1ccc(/C=C/[C@H](O)[C@@H](CO)NC)cc1`: the residual activity was 104%.
Regarding `CC(C)C[C@H](NC(=O)CNC(=O)c1cc(Cl)ccc1Cl)B1OC(=O)CC(CC(=O)O)(C(=O)O)O1` (some centres undefined), the residual activity came out at 96%.
Still for that read-out and setting: to `O=S(=O)(c1ccc(F)c2nonc12)N1CCN(c2ncc(C(F)(F)F)cc2Cl)CC1` belongs 101%; to `c1ccc2c(-c3cnn4cc(-c5ccc(N6CCNCC6)cc5)cnc34)ccnc2c1`, 5%; to `NC(=O)c1c(NC(=O)C2CC2)sc2c1CCCC2`, 95%.

The next assay has as its target STK16 (human) (UniProt O75716). Description: radiometric filter-binding kinase assay. To be noted: compound 0.1 µM.
On to `CCCCCc1ccc(/C=C/[C@H](O)[C@@H](CO)NC)cc1`, for which the residual activity was 104%.
`c1ccc2c(-c3cnn4cc(-c5ccc(N6CCNCC6)cc5)cnc34)ccnc2c1`: the residual activity was found to be 97%.
The same measure, in the same setting: to `COc1cc(O)c2c(c1)/C=C/C[C@H](O)[C@H](O)C(=O)/C=C\C[C@H](C)OC2=O` belongs 103%.

The term residual activity denotes the signal under treatment as a percentage of the control signal.
